Laboratory results as given in US20150366813A1, “LIQUID-FILLED IMMEDIATE RELEASE SOFT GELATIN CAPSULES” (Banner Life Sciences LLC, priority 2014, published 2015).
Where a name gives a salt, the structure may show the parent alone.

Experiment: Particle size distribution of micronized and non-micronized dabigatran etexilate mesylate
Type: physicochemical
Conditions: DEM particle diameter distribution
Text: Examples of dabigatran etexilate mesylate particle size useful for the pharmaceutical composition described herein are shown in Table 9. The distribution of dabigatran etexilate mesylate particle sizes is set forth by the diameter distribution in either micronized or non-micronized samples. The dissolution of micronized and non-micronized dabigatran etexilate mesylate particles was studied using the matrix fill corresponding to DEM A as shown in Table 8 encapsulated in a hard gelatin capsule.

Q: Which “Particle size D(v, 0.1)” value does the source give for CCCCCCOC(=O)N=C(N)c1ccc(NCc2nc3cc(C(=O)N(CCC(=O)OCC)c4ccccn4)ccc3n2C)cc1 [Micronized, dabigatran etexilate mesylate] here?
A: The value was 1.5 μm.

Q: What about the “Particle size D(v, 0.5)” value of the same compound?
A: Its value is 4.2 μm.

Q: And the “Particle size D(v, 0.9)” value?
A: Its value is 10.5 μm.

Q: Which results are given for CCCCCCOC(=O)N=C(N)c1ccc(NCc2nc3cc(C(=O)N(CCC(=O)OCC)c4ccccn4)ccc3n2C)cc1 [Non-micronized, dabigatran etexilate mesylate]?
A: Particle size D(v, 0.1): 4.7 μm; Particle size D(v, 0.5): 20.8 μm; Particle size D(v, 0.9): 50.1 μm
